Data taken from patent publication US9149038B2, “4-amino-6-(heterocyclic)picolinates and 6-amino-2-(heterocyclic)pyrimidine-4-carboxylates and their use as herbicides” (Dow AgroSciences LLC, priority 2013, dated 2015).
Read-outs that look alike come from different tables or passages of the source.

Columns and labels:
[1] = test system: Key Broadleaf Weed and Crop Species; assay: Post-Emergent Test II: postemergent herbicidal activity, visual rating after 14 d (Table 7); format: in vivo; details: post-emergence, 336 h; for pest or weed control at 35 g/ha: 35 g ai/ha; for pest or weed control at 70 g/ha: 70 g ai/ha; for pest or weed control at 140 g/ha: 140 g ai/ha
Summary of the method: (§1)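 Plants were raised in a greenhouse for 7-21 d and treated once at the first or second true leaf stage. Compounds, dissolved in 97:3 acetone:DMSO then diluted into an aqueous acetone/isopropanol/crop oil/Triton X-155 carrier, were applied by overhead track sprayer at 187 L/ha. After 14 d with subirrigation, injury was scored visually from 0 (none) to 100 (complete kill).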

[2] = test system: Key Grass and Sedge Weeds as well as Grass Crops; assay: Post-Emergent Test II: postemergent herbicidal activity, visual rating after 14 d (Table 8); format: in vivo; details: post-emergence, 336 h; for pest or weed control at 35 g/ha: 35 g ai/ha; for pest or weed control at 70 g/ha: 70 g ai/ha; for pest or weed control at 140 g/ha: 140 g ai/ha
Summary of the method: as §1

[3] = lambsquarters (Chenopodium album), read-out: Visual Growth Reduction (%) 14 Days After Application CHEAL
[4] = oilseed rape, canola (Brassica napus), read-out: Visual Growth Reduction (%) 14 Days After Application BRSNN
[5] = redroot pigweed (Amaranthus retroflexus), read-out: Visual Growth Reduction (%) 14 Days After Application AMARE
[6] = sunflower (Helianthus annuus), read-out: Visual Growth Reduction (%) 14 Days After Application HELAN
[7] = velvetleaf (Abutilon theophrasti), read-out: Visual Growth Reduction (%) 14 Days After Application ABUTH
[8] = wild poinsettia (Euphorbia heterophylla), read-out: Visual Growth Reduction (%) 14 Days After Application EPHHL
[9] = barnyardgrass (Echinochloa crus-galli), read-out: Visual Growth Reduction (%) 14 Days After Application ECHCG
[10] = giant foxtail (Setaria faberi), read-out: Visual Growth Reduction (%) 14 Days After Application SETFA
[11] = maize, corn (Zea mays), read-out: Visual Growth Reduction (%) 14 Days After Application ZEAMX
[12] = rice (Oryza sativa), read-out: Visual Growth Reduction (%) 14 Days After Application ORYSA
[13] = wheat, spring (Triticum aestivum), read-out: Visual Growth Reduction (%) 14 Days After Application TRZAS
[14] = yellow nutsedge (Cyperus esculentus), read-out: Visual Growth Reduction (%) 14 Days After Application CYPES

SMILES | pest or weed control at 35 g/ha [1, 3] [%] | pest or weed control at 70 g/ha [1, 3] [%] | pest or weed control at 140 g/ha [1, 3] [%] | pest or weed control at 35 g/ha [1, 4] [%] | pest or weed control at 70 g/ha [1, 4] [%] | pest or weed control at 140 g/ha [1, 4] [%] | pest or weed control at 35 g/ha [1, 5] [%] | pest or weed control at 70 g/ha [1, 5] [%] | pest or weed control at 140 g/ha [1, 5] [%] | pest or weed control at 35 g/ha [1, 6] [%] | pest or weed control at 70 g/ha [1, 6] [%] | pest or weed control at 140 g/ha [1, 6] [%] | pest or weed control at 35 g/ha [1, 7] [%] | pest or weed control at 70 g/ha [1, 7] [%] | pest or weed control at 140 g/ha [1, 7] [%] | pest or weed control at 35 g/ha [1, 8] [%] | pest or weed control at 70 g/ha [1, 8] [%] | pest or weed control at 140 g/ha [1, 8] [%] | pest or weed control at 35 g/ha [2, 9] [%] | pest or weed control at 70 g/ha [2, 9] [%] | further results
COC(=O)c1nc(-c2ccc(Cl)c3c2OC(F)(F)O3)c(F)c(N)c1Cl [Compound 75] | 95 to 100 | 95 to 100 | 95 to 100 | 75 to 84 | 85 to 94 | 95 to 100 | 95 to 100 | 95 to 100 | 95 to 100 | 95 to 100 | 95 to 100 | 95 to 100 | 85 to 94 | 95 to 100 | 95 to 100 | 0 to 29 | 0 to 29 | 0 to 29 | 0 to 29 | 0 to 29 | pest or weed control at 140 g/ha [2, 9]: 0 to 29%; pest or weed control at 35 g/ha [2, 10]: 0 to 29%; pest or weed control at 70 g/ha [2, 10]: 0 to 29%; pest or weed control at 140 g/ha [2, 10]: 0 to 29%; pest or weed control at 35 g/ha [2, 11]: 95 to 100%; pest or weed control at 70 g/ha [2, 11]: 95 to 100%; pest or weed control at 140 g/ha [2, 11]: 95 to 100%; pest or weed control at 35 g/ha [2, 12]: 0 to 29%; pest or weed control at 70 g/ha [2, 12]: 0 to 29%; pest or weed control at 140 g/ha [2, 12]: 0 to 29%; pest or weed control at 35 g/ha [2, 13]: 0 to 29%; pest or weed control at 70 g/ha [2, 13]: 0 to 29%; pest or weed control at 140 g/ha [2, 13]: 0 to 29%; pest or weed control at 35 g/ha [2, 14]: 0 to 29%; pest or weed control at 70 g/ha [2, 14]: 0 to 29%; pest or weed control at 140 g/ha [2, 14]: 45 to 59%
COC(=O)c1nc(-c2ccc(F)c3c2OC(F)(F)O3)c(F)c(N)c1Cl [Compound 76] | 85 to 94 | 85 to 94 | 95 to 100 | 60 to 74 | 75 to 84 | 85 to 94 | 95 to 100 | 95 to 100 | 95 to 100 | 85 to 94 | 85 to 94 | 85 to 94 | 60 to 74 | 75 to 84 | 85 to 94 | 0 to 29 | 0 to 29 | 0 to 29 | 0 to 29 | 0 to 29 | pest or weed control at 140 g/ha [2, 9]: 0 to 29%; pest or weed control at 35 g/ha [2, 10]: 0 to 29%; pest or weed control at 70 g/ha [2, 10]: 0 to 29%; pest or weed control at 140 g/ha [2, 10]: 0 to 29%; pest or weed control at 35 g/ha [2, 11]: 0 to 29%; pest or weed control at 70 g/ha [2, 11]: 0 to 29%; pest or weed control at 140 g/ha [2, 11]: 0 to 29%; pest or weed control at 35 g/ha [2, 12]: 0 to 29%; pest or weed control at 70 g/ha [2, 12]: 0 to 29%; pest or weed control at 140 g/ha [2, 12]: 0 to 29%; pest or weed control at 35 g/ha [2, 13]: 30 to 44%; pest or weed control at 70 g/ha [2, 13]: 45 to 59%; pest or weed control at 140 g/ha [2, 13]: 60 to 74%; pest or weed control at 35 g/ha [2, 14]: 0 to 29%; pest or weed control at 70 g/ha [2, 14]: 30 to 44%; pest or weed control at 140 g/ha [2, 14]: 30 to 44%
